Holding throughout (type): functional
The subject of test [1] is Bacillus subtilis. The test can be described thus: Zone of inhibition of Bacillus subtilis at compound concentration of 160 mg/mL.
Test [2] has as its system Salmonella enterica subsp. enterica serovar Typhi. The test can be described thus: Zone of inhibition of Salmonella typhae at compound concentration of 40 mg/mL.
Test [3] deals with Bacillus subtilis. Kind of test: Zone of inhibition of Bacillus subtilis at compound concentration of 40 mg/mL.
In test [4] the test system is Escherichia coli. The test can be described thus: Zone of inhibition of Escherichia coli at compound concentration of 160 mg/mL.
Test [5] has as its system Klebsiella pneumoniae. The test can be described thus: Zone of inhibition of Klebsiella pneumoniae at compound concentration of 160 mg/mL.
The test system of test [6] is Staphylococcus aureus. The test can be described thus: Zone of inhibition of Staphylococcus aureus at compound concentration of 160 mg/mL.
Test [7] has as its system Staphylococcus aureus. Kind of test: Zone of inhibition of Staphylococcus aureus at compound concentration of 80 mg/mL.
Test [8] concerns Staphylococcus aureus. Kind of test: Zone of inhibition of Staphylococcus aureus at compound concentration of 40 mg/mL.
Test [9] has as its system Salmonella enterica subsp. enterica serovar Typhi. Kind of test: Zone of inhibition of Salmonella typhae at compound concentration of 160 mg/mL.
Test [10] relates to Bacillus subtilis. Kind of test: Zone of inhibition of Bacillus subtilis at compound concentration of 80 mg/mL.
In test [11] the test system is Klebsiella pneumoniae. Kind of test: Zone of inhibition of Klebsiella pneumoniae at compound concentration of 40 mg/mL.
The test system of test [12] is Salmonella enterica subsp. enterica serovar Typhi. Kind of test: Zone of inhibition of Salmonella typhae at compound concentration of 80 mg/mL.
Test [13] relates to Escherichia coli. The test can be described thus: Zone of inhibition of Escherichia coli at compound concentration of 40 mg/mL.
The subject of test [14] is Klebsiella pneumoniae. Kind of test: Zone of inhibition of Klebsiella pneumoniae at compound concentration of 80 mg/mL.
Test [15] concerns Escherichia coli. Kind of test: Zone of inhibition of Escherichia coli at compound concentration of 80 mg/mL.
Test [16] relates to Pseudomonas aeruginosa. The test can be described thus: Zone of inhibition of Pseudomonas aeruginosa at compound concentration of 160 mg/mL.
Test [17] relates to Pseudomonas aeruginosa. Kind of test: Zone of inhibition of Pseudomonas aeruginosa at compound concentration of 40 mg/mL.
Test [18] concerns Pseudomonas aeruginosa. Kind of test: Zone of inhibition of Pseudomonas aeruginosa at compound concentration of 80 mg/mL.
For test [19], the system named is Escherichia coli. The test can be described thus: Zone of inhibition Escherichia coli at compound concentration of 160 mg/mL.
For test [20], the system named is Escherichia coli. Kind of test: Zone of inhibition Escherichia coli at compound concentration of 80 mg/mL.
The subject of test [21] is Escherichia coli. The test can be described thus: Zone of inhibition Escherichia coli at compound concentration of 40 mg/mL.
The test system of test [22] is Escherichia coli. Kind of test: Zone of inhibition Escherichia coli Escherichia coli at compound concentration of 80 mg/mL.
The subject of test [23] is Escherichia coli. The test can be described thus: Zone of inhibition Escherichia coli Escherichia coli at compound concentration of 160 mg/mL.
Test [24] deals with Klebsiella pneumoniae. The test can be described thus: Zone of inhibition Klebsiella pneumoniae at compound concentration of 160 mg/mL.
Test [25] has as its system Klebsiella pneumoniae. The test can be described thus: Zone of inhibition Klebsiella pneumoniae at compound concentration of 80 mg/mL.
The test system of test [26] is Klebsiella pneumoniae. Kind of test: Zone of inhibition Klebsiella pneumoniae at compound concentration of 40 mg/mL.

Structures are written as SMILES.

`Nc1ccc(S(=O)(=O)Nc2ncccn2)cc1` [SULFADIAZINE]: the Inhibition in the test on Bacillus subtilis [1] was found to be 13.5 mm; in test [2], 7 mm; in the test with Bacillus subtilis [3] it was 8.5 mm; with Escherichia coli [4] it was 12.5 mm; with Klebsiella pneumoniae [5] it was 15 mm; with Staphylococcus aureus [6], 9.5 mm. The Inhibition in the test on Staphylococcus aureus [7] was 7.5 mm; in the test with Staphylococcus aureus [8], 7 mm; in test [9] it was 9 mm; in the test on Bacillus subtilis [10], 9.5 mm; with Klebsiella pneumoniae [11], 12.5 mm; in test [12], 7.5 mm. Also, the results for the Inhibition with Escherichia coli [13], with Klebsiella pneumoniae [14] and in the test with Escherichia coli [15] were 8.5 mm, 13.5 mm and 9.5 mm, respectively.

On to `COc1ccc(Cl)cc1C(=O)NCNc1ccc(S(=O)(=O)Nc2ncccn2)cc1`, for which the Inhibition in the test on Bacillus subtilis [1] was 7.5 mm; in [2] it was 7 mm; in the test with Bacillus subtilis [3], 7 mm; in the test with Escherichia coli [4], 9.5 mm; with Klebsiella pneumoniae [5] it was 8.5 mm; with Staphylococcus aureus [6], 15 mm. For the same compound, the Inhibition in the test on Staphylococcus aureus [7] was found to be 11.5 mm; in the test on Staphylococcus aureus [8], 9.5 mm; in the test with Pseudomonas aeruginosa [16], 8.5 mm; in test [9] it was 7.5 mm; in the test on Bacillus subtilis [10], 7 mm; in the test on Klebsiella pneumoniae [11], 7.5 mm. In addition, the Inhibition stood at 7.5 mm with Pseudomonas aeruginosa [17]; 7 mm in test [12]; 8 mm in the test with Escherichia coli [13]; 7.5 mm with Pseudomonas aeruginosa [18]; 8 mm with Klebsiella pneumoniae [14]; 8.5 mm in the test on Escherichia coli [15].

As to `COc1ccc(Cl)cc1C(=O)NCNc1ccc(S(=O)(=O)[N-]C(C)=O)cc1.[Na+]`, the Inhibition stood at 16.5 mm in the test with Bacillus subtilis [1]; 10.5 mm in test [2]; 10.5 mm with Bacillus subtilis [3]; 15.5 mm in the test with Klebsiella pneumoniae [5]; 22 mm with Staphylococcus aureus [6]; 14.5 mm with Staphylococcus aureus [7]. The Inhibition with Escherichia coli [19] amounted to 13 mm; with Staphylococcus aureus [8], 10.5 mm; with Pseudomonas aeruginosa [16], 14.5 mm; in [9], 22 mm; with Bacillus subtilis [10], 12.5 mm; in the test on Klebsiella pneumoniae [11] it was 10 mm. Further, the Inhibition in the test on Pseudomonas aeruginosa [17] came out at 9.5 mm; in test [12], 14.5 mm; in the test with Escherichia coli [20], 10.5 mm; with Escherichia coli [21], 9.5 mm; in the test with Pseudomonas aeruginosa [18], 12.5 mm; in the test on Klebsiella pneumoniae [14] it was 12.5 mm.

On to `Nc1ccc(S(N)(=O)=O)cc1` [SULFANILAMIDE], for which the Inhibition is 13 mm in the test with Bacillus subtilis [1]; 7 mm in [2]; 10.5 mm in the test with Bacillus subtilis [3]; 20.5 mm with Escherichia coli [4]; 25 mm in the test on Staphylococcus aureus [6]; 22.5 mm in the test on Staphylococcus aureus [7]. For the same compound, the Inhibition was 20.5 mm in the test on Staphylococcus aureus [8]; 17.5 mm with Pseudomonas aeruginosa [16]; 7.5 mm in [9]; 11.5 mm in the test with Bacillus subtilis [10]; 13.5 mm with Pseudomonas aeruginosa [17]; 7.5 mm in [12]. Besides, the values for the Inhibition with Escherichia coli [13], with Pseudomonas aeruginosa [18] and in the test on Escherichia coli [15] were 16.5 mm, 15.5 mm and 18 mm, respectively.

For `COc1ccc(Cl)cc1C(=O)NCNc1ccc(S(=O)(=O)NN)cc1`, the Inhibition with Bacillus subtilis [1] stood at 11.5 mm; in test [2], 7 mm; in the test on Bacillus subtilis [3], 7 mm; with Klebsiella pneumoniae [5], 9.5 mm; in the test with Staphylococcus aureus [6] it was 11 mm; in the test on Escherichia coli [22], 7.5 mm. In addition, the Inhibition in the test on Staphylococcus aureus [7] was determined as 8.5 mm; in the test with Staphylococcus aureus [8], 7.5 mm; with Pseudomonas aeruginosa [16], 8.5 mm; in [9] it was 8 mm; in the test on Bacillus subtilis [10], 7.5 mm; in the test with Klebsiella pneumoniae [11], 7 mm. The Inhibition in the test on Pseudomonas aeruginosa [17] turned out to be 7.5 mm; in test [12], 7.5 mm; with Escherichia coli [21], 7 mm; with Pseudomonas aeruginosa [18] it was 8 mm; in the test on Klebsiella pneumoniae [14], 7.5 mm; in the test on Escherichia coli [23], 8.5 mm.

On to `CC(=O)[N-]S(=O)(=O)c1ccc(N)cc1.[Na+]`, for which the Inhibition in the test with Bacillus subtilis [1] was 15 mm; in the test on Bacillus subtilis [3], 9.5 mm; with Staphylococcus aureus [6], 24 mm; in the test on Staphylococcus aureus [7], 21 mm; in the test on Staphylococcus aureus [8] it was 19.5 mm; with Bacillus subtilis [10], 10 mm.

On to `COc1ccc(Cl)cc1C(=O)NCN(c1ccccc1)c1ccccc1`, for which the Inhibition amounted to 8 mm in the test with Bacillus subtilis [1]; 7.5 mm in [2]; 7.5 mm with Bacillus subtilis [3]; 8 mm in the test on Klebsiella pneumoniae [5]; 8.5 mm in test [9]; 7.5 mm with Bacillus subtilis [10]. The figures for the Inhibition (with Klebsiella pneumoniae [11]; in test [12]; in the test with Klebsiella pneumoniae [14]) were 7 mm, 7.5 mm and 7 mm, respectively.

As to `COc1ccc(Cl)cc1C(=O)NCN(C)C`, the Inhibition in the test with Klebsiella pneumoniae [5] stood at 7.5 mm; in the test with Pseudomonas aeruginosa [16] it was 7.5 mm; in the test on Klebsiella pneumoniae [11] it was 7 mm; in the test on Pseudomonas aeruginosa [17], 7 mm; in the test with Pseudomonas aeruginosa [18], 7.5 mm; in the test with Klebsiella pneumoniae [14], 7.5 mm.

With `Cc1cc(NS(=O)(=O)c2ccc(N)cc2)no1` [SULFAMETHOXAZOLE], the Inhibition amounted to 20 mm in the test on Bacillus subtilis [1]; 8.5 mm in test [2]; 15.5 mm with Bacillus subtilis [3]; 11.5 mm in the test on Klebsiella pneumoniae [5]; 21 mm in the test on Staphylococcus aureus [6]; 20.5 mm in the test with Staphylococcus aureus [7]. The Inhibition in the test with Staphylococcus aureus [8] was found to be 19.5 mm; in test [9] it was 12.5 mm; in the test on Bacillus subtilis [10], 18.5 mm; with Klebsiella pneumoniae [11], 8.5 mm; in test [12], 9 mm; in the test on Escherichia coli [13] it was 18.5 mm. For the same compound, the Inhibition in the test on Klebsiella pneumoniae [14] is recorded as 9 mm; in the test on Escherichia coli [15] it was 20.5 mm.

Regarding `COc1ccc(Cl)cc1C(=O)NCN1CCOCC1`, the Inhibition is 10.5 mm in the test on Bacillus subtilis [1]; 8.5 mm in the test with Bacillus subtilis [3]; 12.5 mm in the test on Escherichia coli [4]; 14.5 mm in the test on Klebsiella pneumoniae [5]; 16.5 mm in the test with Staphylococcus aureus [6]; 13.5 mm with Staphylococcus aureus [7]. Also, the Inhibition is reported as 11 mm in the test with Staphylococcus aureus [8]; 12 mm with Pseudomonas aeruginosa [16]; 9 mm in the test with Bacillus subtilis [10]; 10.5 mm in the test with Klebsiella pneumoniae [11]; 9.5 mm in the test on Pseudomonas aeruginosa [17]; 9.5 mm in the test on Escherichia coli [13]. The Inhibition in the test on Pseudomonas aeruginosa [18] was determined as 10.5 mm; with Klebsiella pneumoniae [14], 12.5 mm; in the test with Escherichia coli [15] it was 10.5 mm.

On to `COc1ccc(Cl)cc1C(=O)NCN(CCO)CCO`, for which the Inhibition was found to be 8.5 mm in the test with Bacillus subtilis [1]; 7.5 mm in the test with Klebsiella pneumoniae [24]; 7 mm in the test with Bacillus subtilis [3]; 8.5 mm in the test on Escherichia coli [19]; 7.5 mm in the test with Bacillus subtilis [10]; 7.5 mm in the test with Klebsiella pneumoniae [25]. In addition, the Inhibition in the test with Escherichia coli [20] stood at 7.5 mm; with Escherichia coli [21], 7 mm; in the test with Klebsiella pneumoniae [26] it was 7 mm.
